The test can be described thus: Measurement of Sodium Ion Channel Blocking Effects: In order to measure the sodium ion channel blocking effect, an IonFlux16 Auto patch clamp system (Fluxion, Inc.) and a plate for exclusive use were used. The cells were distributed in an extracellular solution (4 mM KCl, 138 mM NaCl, 1 mM MgCl2, 1.8 mM CaCl2, 5.6 mM glucose, 10 mM HEPES, pH 7.45), and then dispensed in the specified region of the plate, and each of the prepared compound samples was diluted at various concentrations, and then dispensed in the specified region of the plate. The test is classed as cell-based.
Compound `CN[C@@H]1CCN(c2cc(F)ccc2Nc2ccc(S(=O)(=O)Nc3cscn3)cc2Cl)C1` had a 50% inhibitory concentration (IC50) of 362 nM.
Regarding `CN1CCN(c2cc(OC(F)F)ccc2Nc2cc(F)c(S(=O)(=O)Nc3cscn3)cc2Cl)CC1`, the IC50 is 160 nM.
Then `CN(C)CCN(C)c1cc(F)ccc1Nc1cc(F)c(S(=O)(=O)Nc2nccs2)cc1Cl`, with 240 nM; and `CNCCN(C)c1cc(C(F)(F)F)ccc1Nc1cc(F)c(S(=O)(=O)Nc2nccs2)cc1Cl`, with 10 nM.
The compound `CN[C@@H]1CCN(c2cc(F)ccc2Nc2ccc(S(=O)(=O)Nc3cscn3)cc2)C1` came in with a half-inhibitory concentration (IC50) of over 1000 nM.
`CNC1CCN(c2cc(C(F)(F)F)ccc2Nc2cc(F)c(S(=O)(=O)Nc3cscn3)cc2Cl)C1` (stereo not given) registered an IC50 of 21 nM.
The compound `CNCCN(C)c1ccccc1Nc1cc(F)c(S(=O)(=O)Nc2cc(C)[nH]n2)cc1Cl` displayed an IC50 of over 10000 nM.
The same measure for `COc1ccc(Nc2cc(F)c(S(=O)(=O)Nc3cscn3)cc2Cl)c(N2CC[C@H](N(C)C)C2)c1`: 435 nM.
The compound `CNC1CCN(c2cc(F)ccc2Nc2cc(F)c(S(=O)(=O)Nc3ncns3)cc2Cl)C1` (stereo not given) gave an IC50 of 1400 nM.
`CN[C@@H]1CCCN(c2cc(F)ccc2Nc2ccc(S(=O)(=O)Nc3cscn3)c(F)c2)C1` displayed a half-inhibitory concentration (IC50) of 357 nM.
Then `CNC1CCN(c2cc(OC(F)(F)F)ccc2Nc2ccc(S(=O)(=O)Nc3cscn3)cc2)C1` (stereo not given), with 447 nM; and `CN[C@@H]1CCN(c2cc(F)ccc2Nc2cc(F)c(S(=O)(=O)Nc3cscn3)cc2Cl)C1`, with 44 nM.
In turn, `CNC1CCN(c2cc(OC(F)(F)F)ccc2Nc2ccc(S(=O)(=O)Nc3cscn3)c(F)c2)C1` (stereo not given) returned an IC50 of 108 nM.
As for `CNCCN(C)c1cc(F)ccc1Nc1cc(F)c(S(=O)(=O)Nc2cc(C(C)(C)C)on2)cc1Cl`, the midpoint of inhibition, the IC50, lay at 190 nM.
The compound `CNC1CCN(c2cc(Cl)cnc2Nc2cc(F)c(S(=O)(=O)Nc3cscn3)cc2Cl)C1` (stereo not given) returned an IC50 of over 1000 nM.
`CNCCN(C)c1cc(F)ccc1Nc1cc(F)c(S(=O)(=O)Nc2ncc(C)s2)cc1Cl` had a 50% inhibitory concentration (IC50) of 50 nM.
As for `CN[C@@H]1CCCN(c2cc(F)ccc2Nc2ccc(S(=O)(=O)Nc3cscn3)cc2)C1`, the 50% inhibitory concentration (IC50) is over 1000 nM.
`NC1CCN(c2cc(F)ccc2Nc2ccc(S(=O)(=O)Nc3cscn3)c(F)c2)C1` (stereo not given): the 50% inhibitory concentration (IC50) is over 1000 nM.
Then `O=S(=O)(Nc1cscn1)c1cc(Cl)c(Nc2ccc(F)cc2N2CC[C@@H](F)C2)cc1F`, with 236 nM; and `CNCCN(C)c1cc(F)ccc1Nc1cc(F)c(S(=O)(=O)Nc2cc(C)[nH]n2)cc1Cl`, with 240 nM; and `CNCCN(C)c1cc(Cl)ccc1Nc1cc(F)c(S(=O)(=O)Nc2cscn2)cc1Cl`, with 50 nM.
On to `CN(C)CCN(C)c1ccccc1Nc1cc(F)c(S(=O)(=O)Nc2ncc(Cl)s2)cc1Cl`, for which the midpoint of inhibition, the IC50, lay at 3670 nM.
The compound `CNCCN(C)c1cc(OC)ccc1Nc1cc(F)c(S(=O)(=O)Nc2ncc(F)s2)cc1Cl` returned a half-maximal inhibitory concentration (IC50) of 184 nM.
The compound `CN[C@@H]1CCCN(c2cc(OC)ccc2Nc2ccc(S(=O)(=O)Nc3cscn3)cc2Cl)C1` registered a half-inhibitory concentration (IC50) of over 1000 nM.
The same measure for `CN[C@@H]1CCCN(c2cc(OC)ccc2Nc2cc(F)c(S(=O)(=O)Nc3cscn3)cc2Cl)C1`: 73 nM; for `CN[C@H]1CCN(c2cc(C(F)(F)F)ccc2Nc2cc(F)c(S(=O)(=O)Nc3cscn3)cc2Cl)C1`: 23 nM.
In turn, `CN(C)[C@H]1CCN(c2cc(OC(F)F)ccc2Nc2cc(F)c(S(=O)(=O)Nc3cscn3)cc2Cl)C1` returned a half-maximal inhibitory concentration (IC50) of 46 nM.
Regarding `CNCCN(C)c1ccccc1Nc1cc(F)c(S(=O)(=O)Nc2cc(C)on2)cc1Cl`, half-maximal inhibition (IC50) was put at 20 nM.
Then `CNC1CCN(c2nc(Cl)ccc2Nc2cc(F)c(S(=O)(=O)Nc3cscn3)cc2Cl)C1` (stereo not given), with over 1000 nM; and `O=S(=O)(Nc1cscn1)c1ccc(Nc2ccc(F)cc2N2CC[C@@H](F)C2)cc1`, with over 1000 nM; and `CNCCN(C)c1ccccc1Nc1cc(F)c(S(=O)(=O)Nc2ccccn2)cc1Cl`, with 120 nM.
Then `CNCCN(C)c1cc(C(F)(F)F)ccc1Nc1cc(F)c(S(=O)(=O)Nc2ccccn2)cc1Cl`, with 70 nM; and `CN(C)[C@@H]1CCN(c2cc(F)ccc2Nc2cc(F)c(S(=O)(=O)Nc3cscn3)cc2Cl)C1`, with 100 nM; and `CNCCN(C)c1cc(Cl)ccc1Nc1cc(F)c(S(=O)(=O)Nc2ccc(F)cn2)cc1Cl`, with 80 nM.
The same measure for `CNCCN(C)c1ccccc1Nc1cc(F)c(S(=O)(=O)Nc2ncc(F)s2)cc1Cl`: 27 nM.
Turning to `CN1CCN(c2cc(C(F)(F)F)ccc2Nc2cc(F)c(S(=O)(=O)Nc3cscn3)cc2Cl)CC1`, the IC50 was determined as 541 nM.
Regarding `CN1CCN(c2cc(F)ccc2Nc2ccc(S(=O)(=O)Nc3cscn3)cc2Cl)CC1`, the concentration for half-maximal inhibition (IC50) is over 1000 nM.
Then `CC(=O)N[C@@H]1CCN(c2cc(Cl)ccc2Nc2cc(F)c(S(=O)(=O)Nc3cscn3)cc2Cl)C1`, with 120 nM; and `CNC1CCN(c2c(F)cccc2Nc2ccc(S(=O)(=O)Nc3cscn3)cc2Cl)C1` (stereo not given), with 375 nM.
Then `CC(=O)N[C@@H]1CCN(c2cc(F)ccc2Nc2ccc(S(=O)(=O)Nc3cscn3)cc2Cl)C1`, with 6580 nM; and `CNC1CCN(c2cc(F)ccc2Nc2ccc(S(=O)(=O)Nc3cscn3)c(F)c2)C1` (stereo not given), with 372 nM; and `CNC1CCN(c2cc(OC(F)(F)F)ccc2Nc2c(F)cc(S(=O)(=O)Nc3cscn3)cc2F)C1` (stereo not given), with 369 nM.
Then `CNCCN(C)c1cc(Cl)ccc1Nc1cc(F)c(S(=O)(=O)Nc2nccs2)cc1Cl`, with 20 nM; and `CNCCN(C)c1cc(OC)ccc1Nc1cc(F)c(S(=O)(=O)Nc2ncc(Cl)s2)cc1Cl`, with 6 nM.
In turn, `CN(C)[C@H]1CCN(c2cc(F)ccc2Nc2cc(F)c(S(=O)(=O)Nc3cscn3)cc2Cl)C1` came in with an IC50 of over 10000 nM.
`COC1CCN(c2cc(C(F)(F)F)ccc2Nc2cc(F)c(S(=O)(=O)Nc3cscn3)cc2Cl)C1` (stereo not given): half-maximal inhibition (IC50) required 140 nM.
As to `CN[C@@H]1CCCN(c2cc(Cl)ccc2Nc2cc(F)c(S(=O)(=O)Nc3cscn3)cc2Cl)C1`, the concentration for half-maximal inhibition (IC50) was found to be 44 nM.
`O=S(=O)(Nc1cscn1)c1cc(Cl)c(Nc2ccc(Cl)cc2N2CCC(N3CCCC3)C2)cc1F` (stereo not given) registered an IC50 of 125 nM.
Then `CNCCN(C)c1cc(OC)ccc1Nc1cc(F)c(S(=O)(=O)Nc2ccc(F)cn2)cc1Cl`, with 200 nM; and `CNC1CCN(c2cc(F)ccc2Nc2cc(F)c(S(=O)(=O)Nc3ccncn3)cc2Cl)C1` (stereo not given), with 250 nM.
Consider `CN[C@H]1CCN(c2cc(C(F)(F)F)ccc2Nc2ccc(S(=O)(=O)Nc3cscn3)cc2Cl)C1`, for which the IC50 was found to be 28 nM.
Take `CNC1CCN(c2cc(OC(F)(F)F)ccc2Nc2cc(F)c(S(=O)(=O)Nc3cscn3)cc2Cl)C1` (stereo not given): the half-maximal inhibitory concentration (IC50) was found to be 53 nM.
As for `COC1CCN(c2cc(F)ccc2Nc2ccc(S(=O)(=O)Nc3cscn3)cc2Cl)C1` (stereo not given), it took 1220 nM to reach half-maximal inhibition (IC50).
The same measure for `CNCCN(C)c1ccccc1Nc1cc(F)c(S(=O)(=O)Nc2ccc(F)cn2)cc1Cl`: 70 nM; for `CN1CCN(c2cc(F)ccc2Nc2cc(F)c(S(=O)(=O)Nc3cscn3)cc2Cl)CC1`: over 1000 nM.
Compound `CNC1CCN(c2cc(F)ccc2Nc2cc(F)c(S(=O)(=O)Nc3ccn(C)n3)cc2Cl)C1` (stereo not given) showed a concentration for half-maximal inhibition (IC50) of 390 nM.
Compound `CNCCN(C)c1cc(OC)ccc1Nc1cc(F)c(S(=O)(=O)Nc2nccs2)cc1Cl` returned a concentration for half-maximal inhibition (IC50) of 20 nM.
Then `CNC1CCN(c2cc(OC)ccc2Nc2ccc(S(=O)(=O)Nc3cscn3)c(F)c2)C1` (stereo not given), with over 1000 nM; and `CNCCN(C)c1cc(OC)ccc1Nc1cc(F)c(S(=O)(=O)Nc2cscn2)cc1Cl`, with 140 nM; and `NC1CCN(c2cc(F)ccc2Nc2ccc(S(=O)(=O)Nc3cscn3)cc2Cl)C1` (stereo not given), with 241 nM.
The same measure for `NC1CCN(c2cc(F)ccc2Nc2cc(F)c(S(=O)(=O)Nc3cscn3)cc2Cl)C1` (stereo not given): 205 nM; for `CN(C)[C@H]1CCN(c2cc(C(F)(F)F)ccc2Nc2ccc(S(=O)(=O)Nc3cscn3)cc2Cl)C1`: 103 nM; for `CN(C)CCN(C)c1cc(F)ccc1Nc1cc(F)c(S(=O)(=O)Nc2ncc(Cl)s2)cc1Cl`: 60 nM.
As for `CCN(CC)C1CCN(c2cc(Cl)ccc2Nc2cc(F)c(S(=O)(=O)Nc3cscn3)cc2Cl)C1` (stereo not given), the IC50 was 182 nM.
Compound `CNC1CCN(c2cc(C#N)ccc2Nc2cc(F)c(S(=O)(=O)Nc3cscn3)cc2Cl)C1` (stereo not given) yielded an IC50 of 32 nM.
Then `CNCCN(C)c1cc(C(F)(F)F)ccc1Nc1cc(F)c(S(=O)(=O)Nc2ccc(F)cn2)cc1Cl`, with 50 nM; and `CNCCN(C)c1ccccc1Nc1cc(F)c(S(=O)(=O)Nc2ncc(Cl)s2)cc1Cl`, with 4 nM; and `CC(=O)N[C@@H]1CCN(c2cc(F)ccc2Nc2cc(F)c(S(=O)(=O)Nc3cscn3)cc2Cl)C1`, with 1930 nM.
Compound `CN(C)[C@@H]1CCN(c2cc(OC(F)F)ccc2Nc2cc(F)c(S(=O)(=O)Nc3cscn3)cc2Cl)C1` came in with an IC50 of 126 nM.
As to `CNCCN(C)c1cc(C#N)ccc1Nc1cc(F)c(S(=O)(=O)Nc2nccs2)cc1Cl`, the IC50 turned out to be 20 nM.
Then `CNCCN(C)c1ccccc1Nc1cc(F)c(S(=O)(=O)Nc2cc(C(C)(C)C)on2)cc1Cl`, with over 10000 nM; and `CC(=O)N[C@@H]1CCN(c2cc(C(F)(F)F)ccc2Nc2cc(F)c(S(=O)(=O)Nc3cscn3)cc2Cl)C1`, with 212 nM; and `CNC1CCN(c2cc(F)ccc2Nc2c(F)cc(S(=O)(=O)Nc3cscn3)cc2F)C1` (stereo not given), with 412 nM.
Then `CN[C@@H]1CCCN(c2cc(OC)ccc2Nc2ccc(S(=O)(=O)Nc3cscn3)cc2)C1`, with over 1000 nM; and `O=S(=O)(Nc1cscn1)c1cc(F)c(Nc2ccc(F)cc2N2CC[C@@H](F)C2)c(F)c1`, with over 1000 nM; and `CN(C)CCN(C)c1cc(F)ccc1Nc1ccc(S(=O)(=O)Nc2cscn2)cc1Cl`, with 350 nM.
Consider `CN[C@H]1CCN(c2cc(F)ccc2Nc2ccc(S(=O)(=O)Nc3cscn3)c(F)c2)C1`, for which the concentration for half-maximal inhibition (IC50) was determined as 241 nM.
Turning to `CNC1CCN(c2cc(C(F)(F)F)ccc2Nc2ccc(S(=O)(=O)Nc3cscn3)cc2Cl)C1` (stereo not given), it took 27 nM to reach half-maximal inhibition (IC50).
The compound `CN[C@H]1CCN(c2cc(F)ccc2Nc2cc(F)c(S(=O)(=O)Nc3cscn3)cc2Cl)C1` gave a half-inhibitory concentration (IC50) of 50 nM.
The compound `CNCCN(C)c1cc(OC)ccc1Nc1cc(F)c(S(=O)(=O)Nc2ncc(F)cn2)cc1Cl` yielded a 50% inhibitory concentration (IC50) of 470 nM.

For orientation: IC50 means the concentration needed to halve the response being measured. A lower IC50 goes with higher potency.

(Values after ChEMBL document CHEMBL5726731, “Substituted benzenesulfonamides as sodium channel blockers” (2019).)
